Test results as given in patent publication US20230167088A1, “1-PYRAZINYLPYRAZOLYL-3-OXYALKYL ACIDS AND THEIR DERIVATIVES, AND THEIR USE FOR CONTROL OF UNDESIRED PLANT GROWTH” (BAYER AKTIENGESELLSCHAFT, priority 2020, published 2023).

Columns and labels:
[1] = tested on: ALOMY; test: Herbicidal post-emergence action 1a (greenhouse pots, visual rating); format: in vivo, Alopecurus myosuroides; conditions: rated visually about 3 weeks after treatment, 100% = plants have died, 0% = like control plants
Summary of the method: (§1)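 Weeds and crops sown in sandy loam in greenhouse pots were sprayed post-emergence at the one-leaf stage (2–3 weeks after sowing) with WP or EC formulations plus 0.5% additive at 600 l/ha water, 320 and/or 80 g/ha. About 3 weeks later damage was rated visually against untreated controls (0% = no effect, 100% = dead).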

[2] = tested on: ECHCG; test: Herbicidal pre-emergence action 2a (greenhouse pots, visual scoring); format: in vivo, Echinochloa crus-galli; conditions: dosage 320 g/ha, visual scoring after about 3 weeks
Summary of the method: (§2)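 Weed and crop seeds placed in pots and covered with soil; aqueous suspension or emulsion of WP/EC formulation applied to the soil surface before emergence (600 l/ha, 0.5% additive, 320 and/or 80 g/ha). Pots kept in the greenhouse about 3 weeks; visual percentage scoring.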

[3] = tested on: POLCO; test: Herbicidal post-emergence action 1a (greenhouse pots, visual rating); format: in vivo, Polygonum convolvulus; conditions: visual rating about 3 weeks after treatment
Summary of the method: as §1

[4] = tested on: AVEFA; test: Herbicidal pre-emergence action 2a (greenhouse pots, visual scoring); format: in vivo, Avena fatua; conditions: dosage 320 g/ha, visual scoring after about 3 weeks
Summary of the method: as §2

[5] = tested on: VIOTR; test: Herbicidal post-emergence action 1a (greenhouse pots, visual rating); format: in vivo, Viola tricolor; conditions: visual rating about 3 weeks after treatment
Summary of the method: as §1

[6] = tested on: LOLRI; test: as above; format: in vivo, Lolium rigidum; conditions: Dosage 320 g/ha; rated visually about 3 weeks after treatment; 100% = plants have died, 0% = like control plants
Summary of the method: as §1

[7] = tested on: LOLRI; test: Herbicidal pre-emergence action 2a (greenhouse pots, visual scoring); format: in vivo, Lolium rigidum; conditions: dosage 320 g/ha, visual scoring after about 3 weeks vs untreated controls
Summary of the method: as §2

[8] = tested on: AMARE; test: Herbicidal pre-emergence action 2b (doubly sown, 1280 g/ha); format: in vivo, Amaranthus retroflexus; conditions: doubly sown pots, dosage 1280 g/ha, visual scoring after about 3 weeks
Summary of the method: (§3)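 Weed seeds sown in sandy loam, two species per pot, covered with soil; compounds as WP or EC applied to soil surface as aqueous suspension/emulsion with 0.5% additive at 600 L/ha water. Greenhouse growth; visual % activity vs untreated controls after about 3 weeks (100% = dead, 0% = like control).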

[9] = tested on: ECHCG; test: as above; format: in vivo, Echinochloa crus-galli; conditions: doubly sown pots, dosage 1280 g/ha, visual scoring after about 3 weeks
Summary of the method: as §3

[10] = tested on: DIGSA; test: Herbicidal pre-emergence action 2a (greenhouse pots, visual scoring); format: in vivo, Digitaria sanguinalis; conditions: dosage 320 g/ha, visual scoring after about 3 weeks
Summary of the method: as §2

[11] = tested on: HORMU; test: Herbicidal post-emergence action 1a (greenhouse pots, visual rating); format: in vivo, Hordeum murinum; conditions: rated visually about 3 weeks after treatment, 100% = plants have died, 0% = like control plants
Method: (§4) [table] a) Seeds of monocotyledonous and dicotyledonous weeds and crop plants are placed in sandy loam in plastic or organic plant pots, covered with soil and cultivated in a greenhouse under controlled growth conditions. 2 to 3 weeks after sowing, the test plants are treated at the one-leaf stage. The compounds of the invention, formulated in the form of wettable powders (WP) or as emulsion concentrates (EC), are then sprayed onto the green parts of the plants as aqueous suspension or emulsion with addition of 0.5% additive at a water application rate of 600 1/ha (converted). After the test plants have been kept in the greenhouse under optimum growth conditions for about 3 weeks, the activity of the preparations is rated visually in comparison to untreated controls. For example, 100% activity=the plants have died, 0% activity=like control plants. Tables A1 to A15 below show the effects of selected compounds of the general formula (I) according to Tables 1 and 2 on various harmful plants and an application rate corresponding to 320 g/ha and/or 80 g/ha, which were obtained by the experimental procedure mentioned above.

[12] = tested on: ECHCG; test: as above; format: in vivo, Echinochloa crus-galli; conditions: rated visually about 3 weeks after treatment, 100% = plants have died, 0% = like control plants
Summary of the method: as §1

[13] = tested on: AMARE; test: Herbicidal pre-emergence action 2a (greenhouse pots, visual scoring); format: in vivo, Amaranthus retroflexus; conditions: dosage 320 g/ha, visual scoring after about 3 weeks vs untreated controls
Summary of the method: as §2

[14] = tested on: STEME; test: Herbicidal pre-emergence action 2b (doubly sown, 1280 g/ha); format: in vivo, Stellaria media; conditions: doubly sown pots, dosage 1280 g/ha, visual scoring after about 3 weeks
Summary of the method: as §3

[15] = tested on: POAAN; test: as above; format: in vivo, Poa annua; conditions: doubly sown pots, dosage 1280 g/ha, visual scoring after about 3 weeks
Summary of the method: as §3

[16] = tested on: AVEFA; test: Herbicidal post-emergence action 1a (greenhouse pots, visual rating); format: in vivo, Avena fatua; conditions: rated visually about 3 weeks after treatment, 100% = plants have died, 0% = like control plants
Summary of the method: as §1

[17] = tested on: ALOMY; test: Herbicidal pre-emergence action 2a (greenhouse pots, visual scoring); format: in vivo, Alopecurus myosuroides; conditions: dosage 320 g/ha, visual scoring after about 3 weeks
Summary of the method: as §2

[18] = tested on: SETVI; test: as above; format: in vivo, Setaria viridis; conditions: dosage 320 g/ha, visual scoring after about 3 weeks vs untreated controls
Summary of the method: as §2

[19] = tested on: POLCO; test: as above; format: in vivo, Polygonum convolvulus; conditions: dosage 320 g/ha, visual scoring after about 3 weeks vs untreated controls
Summary of the method: as §2

[20] = tested on: MATIN; test: Herbicidal pre-emergence action 2b (doubly sown, 1280 g/ha); format: in vivo, Matricaria inodora; conditions: doubly sown pots, dosage 1280 g/ha, visual scoring after about 3 weeks
Summary of the method: as §3

[21] = tested on: VERPE; test: Herbicidal post-emergence action 1a (greenhouse pots, visual rating); format: in vivo, Veronica persica; conditions: visual rating about 3 weeks after treatment
Summary of the method: as §1

[22] = tested on: STEME; test: as above; format: in vivo, Stellaria media; conditions: Dosage 320 g/ha; rated visually about 3 weeks after treatment; 100% = plants have died, 0% = like control plants
Method: as §4

[23] = tested on: VIOTR; test: Herbicidal pre-emergence action 2a (greenhouse pots, visual scoring); format: in vivo, Viola tricolor; conditions: dosage 320 g/ha, visual scoring after about 3 weeks vs untreated controls
Summary of the method: as §2

[24] = tested on: AMARE; test: Herbicidal post-emergence action 1a (greenhouse pots, visual rating); format: in vivo, Amaranthus retroflexus; conditions: visual rating about 3 weeks after treatment
Summary of the method: as §1

[25] = tested on: ABUTH; test: Herbicidal pre-emergence action 2a (greenhouse pots, visual scoring); format: in vivo, Abutilon theophrasti; conditions: dosage 320 g/ha, visual scoring after about 3 weeks vs untreated controls
Source text: (§5) [table] a) Seeds of monocotyledonous and dicotyledonous weed plants and crop plants are placed in plastic or organic plant pots and covered with soil. The compounds of the invention, formulated in the form of wettable powders (WP) or as emulsion concentrates (EC), are then applied onto the surface of the covering soil as aqueous suspension or emulsion with addition of 0.5% additive at a water application rate of 600 1/ha (converted). After the treatment, the pots are placed in a greenhouse and kept under good growth conditions for the trial plants. After about 3 weeks, the effect of the preparations is scored visually in comparison with untreated controls as percentages. For example, 100% activity=the plants have died, 0% activity=like control plants. Tables B1 to B15 below show the effects of selected compounds of the general formula (I) according to Tables 1 and 2 on various harmful plants and an application rate corresponding to 320 g/ha and/or 80 g/ha, which were obtained by the experimental procedure mentioned above.

[26] = tested on: ABUTH; test: Herbicidal post-emergence action 1a (greenhouse pots, visual rating); format: in vivo, Abutilon theophrasti; conditions: visual rating about 3 weeks after treatment
Summary of the method: as §1

[27] = tested on: SETVI; test: as above; format: in vivo, Setaria viridis; conditions: rated visually about 3 weeks after treatment, 100% = plants have died, 0% = like control plants
Summary of the method: as §1

[28] = tested on: MATIN; test: Herbicidal pre-emergence action 2a (greenhouse pots, visual scoring); format: in vivo, Matricaria inodora; conditions: dosage 320 g/ha, visual scoring after about 3 weeks vs untreated controls
Summary of the method: as §2

[29] = tested on: PHBPU; test: Herbicidal post-emergence action 1a (greenhouse pots, visual rating); format: in vivo, Pharbitis purpurea; conditions: dosage 320 g/ha, visual rating about 3 weeks after treatment
Summary of the method: as §1

[30] = tested on: VERPE; test: Herbicidal pre-emergence action 2a (greenhouse pots, visual scoring); format: in vivo, Veronica persica; conditions: dosage 320 g/ha, visual scoring after about 3 weeks vs untreated controls
Summary of the method: as §2

[31] = tested on: PHBPU; test: as above; format: in vivo, Pharbitis purpurea; conditions: dosage 320 g/ha, visual scoring after about 3 weeks vs untreated controls
Source text: as §5

## COC(=O)COc1nn(-c2cnccn2)c(-c2ccnc(F)c2)c1Br [Example I-09]
[1]; Dosage 80 g/ha
  Post-emergence action against ALOMY in %: 80%
[1]; Dosage 320 g/ha
  Post-emergence action against ALOMY in %: 90%
[2]
  Pre-emergence action against ECHCG in %: 100%
[3]; dosage 320 g/ha
  Post-emergence action against POLCO in %: 100%
[4]
  Pre-emergence action against AVEFA in %: 90%
[5]; dosage 80 g/ha
  Post-emergence action against VIOTR in %: 90%
[5]; dosage 320 g/ha
  Post-emergence action against VIOTR in %: 90%
[6]
  Post-emergence action against LOLRI in %: 90%
[7]
  Pre-emergence action against LOLRI in %: 90%
[8]
  Pre-emergence action at 1280 g/ha against AMARE in %: 90%
[9]
  Pre-emergence action at 1280 g/ha against ECHCG in %: 100%
[10]
  Pre-emergence action against DIGSA in %: 100%
[11]; Dosage 80 g/ha
  Post-emergence action against HORMU in %: 80%
[11]; Dosage 320 g/ha
  Post-emergence action against HORMU in %: 90%
[12]; Dosage 80 g/ha
  Post-emergence action against ECHCG in %: 80%
[12]; Dosage 320 g/ha
  Post-emergence action against ECHCG in %: 80%
[13]
  Pre-emergence action against AMARE in %: 100%
[14]
  Pre-emergence action at 1280 g/ha against STEME in %: 100%
[15]
  Pre-emergence action at 1280 g/ha against POAAN in %: 100%
[16]; Dosage 80 g/ha
  Post-emergence action against AVEFA in %: 90%
[16]; Dosage 320 g/ha
  Post-emergence action against AVEFA in %: 90%
[17]
  Pre-emergence action against ALOMY in %: 90%
[18]
  Pre-emergence action against SETVI in %: 90%
[19]
  Pre-emergence action against POLCO in %: 100%
[20]
  Pre-emergence action at 1280 g/ha against MATIN in %: 100%
[21]; dosage 80 g/ha
  Post-emergence action against VERPE in %: 90%
[22]
  Post-emergence action against STEME in %: 80%
[23]
  Pre-emergence action against VIOTR in %: 90%

## CCOC(=O)COc1nn(-c2cnccn2)c(-c2cncc(F)c2)c1Cl [Example I-91]
[2]
  Pre-emergence action against ECHCG in %: 100%
[3]; dosage 80 g/ha
  Post-emergence action against POLCO in %: 80%
[3]; dosage 320 g/ha
  Post-emergence action against POLCO in %: 80%
[24]; dosage 80 g/ha
  Post-emergence action against AMARE in %: 80%
[24]; dosage 320 g/ha
  Post-emergence action against AMARE in %: 90%
[4]
  Pre-emergence action against AVEFA in %: 90%
[25]
  Pre-emergence action against ABUTH in %: 90%
[6]
  Post-emergence action against LOLRI in %: 90%
[7]
  Pre-emergence action against LOLRI in %: 100%
[26]; dosage 80 g/ha
  Post-emergence action against ABUTH in %: 80%
[26]; dosage 320 g/ha
  Post-emergence action against ABUTH in %: 80%
[27]; Dosage 80 g/ha
  Post-emergence action against SETVI in %: 80%
[27]; Dosage 320 g/ha
  Post-emergence action against SETVI in %: 90%
[12]; Dosage 320 g/ha
  Post-emergence action against ECHCG in %: 90%
[13]
  Pre-emergence action against AMARE in %: 100%
[16]; Dosage 320 g/ha
  Post-emergence action against AVEFA in %: 90%
[17]
  Pre-emergence action against ALOMY in %: 80%
[18]
  Pre-emergence action against SETVI in %: 100%
[19]
  Pre-emergence action against POLCO in %: 90%
[28]
  Pre-emergence action against MATIN in %: 100%
[29]
  Post-emergence action against PHBPU in %: 90%
[21]; dosage 80 g/ha
  Post-emergence action against VERPE in %: 80%
[21]; dosage 320 g/ha
  Post-emergence action against VERPE in %: 80%
[30]
  Pre-emergence action against VERPE in %: 90%
[31]
  Pre-emergence action against PHBPU in %: 90%
